Where a name gives a salt, the structure may show the parent alone. Read-outs that look alike come from different tables or passages of the source.
How the values were obtained:
[1] = test system: food or carbohydrate craving in patients; assay: Low-dose naltrexone patient study: subjective naltrexone efficacy rating (zero to ten) on food or carbohydrate craving; format: in vivo, human; parameters: key to naltrexone efficacy rating: 0 = no benefit on craving, 10 = no food/carbohydrate craving; conditions: scale zero to ten
Source text: Fifty mg naltrexone tablets (REVIA) were ground, mixed with lactose and dispensed at lower doses into capsules by a compounding chemist according to standard methods in doses indicated in the following examples.
(§1) For each patient described below, the patient was given an initial dose and the dose was then tailored to the patient. The dose of naltrexone was lowered when the patient experienced side effects, including headaches, nausea and/or difficulty concentrating on complex tasks, or if naltrexone is inadequately effective at a higher dose. […] Although “final” values are provided, the study continues unless termination is indicated. The following patients, as well as additional patients are currently being studied. All patients were treated for at least two months, unless released from the study due to adverse effects that were not relieved by reducing the dosage of naltrexone.
The “rating” of naltrexone efficacy is a subjective scale of zero to ten. A value of zero means that the patient experiences no beneficial effects upon food or carbohydrate craving when taking naltrexone. A value of ten means that the patient experiences no food or carbohydrate craving after taking naltrexone, and can maintain control even when a tantalizing carbohydrate-laden treat, such as a hot buttered roll, a cookie or ice cream, is placed in front of the patient, even when the patient is hungry. For diabetics, a value of eight or greater is considered a success. In contrast, for obese, non-diabetics, a value of six or greater is considered a success because carbohydrates need to be controlled, but not as diligently controlled as with diabetics.
Of note, one patient who snacked between dinner and bedtime also had insomnia. […] Unless otherwise noted, all patients are diabetics. Patients who experienced a naltrexone efficacy rating of greater than or equal to 8 also experienced a suppression of both carbohydrate craving and any tendency to overeat, in general.

[2] = test system: eating behavior in humans; conditions: cited from earlier work
[3] = test system: carbohydrate craving in patients; assay: Timing of naltrexone action on carbohydrate craving in patients (onset, duration); format: in vivo, human
Protocol: Naltrexone is preferably administered to act at the time(s) of day when overeating or carbohydrate craving occurs. Naltrexone usually starts working about 3–4 hours after it is taken and continues to work for about six hours, but this timing varies from person to person. If a patient overeats only at supper, they might take a dose about 3–4 hours prior to that meal. If their problem is from after lunch until bedtime, they might take a dose after breakfast, after lunch, and before or after supper, all by trial and error, to find the optimal timing. Different amounts of naltrexone also may be administered at different times, depending on a patient's response to each dosage at each time. If the patient experiences carbohydrate cravings at all waking hours, the patient might take a slow-release (extended-release) or timed-release dose at bedtime that would ideally cover the next morning, or take a dose in the middle of the night if the patient awakens to urinate, as many do. The patient then might take additional doses upon arising, before lunch, mid-afternoon, and after supper or a slow-release dose upon arising. […] Finding what works for any given patient's particular pattern of overeating or carbohydrate craving is trial and error. If a patient's problem is only at dinner when they eat out, then they might take the naltrexone about 3–4 hours before the planned dinnertime only on such days.

squirrel monkeys = conditions: cited from earlier work
animals = conditions: cited from earlier work
[4] = test system: food or carbohydrate craving in patients; assay: Low-dose naltrexone patient study: subjective naltrexone efficacy rating (zero to ten) on food or carbohydrate craving; format: in vivo, human; conditions: obese person
patients = assay: Side effects of low-dose naltrexone therapy in patients; format: in vivo, human
Source text: These effects included tiredness, headache, nausea, impaired libido, diminished pleasure in daily activities and difficulty concentrating on complex tasks. Such problems nearly always occur after the first dose or a dosage increase. When they occur, the dose of naltrexone must either be lowered or naltrexone therapy must be discontinued if lower doses are ineffective.
Another side effect that some patients relate is a feeling of mental confusion that impairs concentration upon difficult tasks. Like a headache, this effect is unacceptable. For this reason, a patient typically is started on a very low dose—for example, and without limitation, 1 mg capsules—and the amount of each dose is then increased or decreased until an effective level is reached at which the patient experiences no side effects.
as §1

[5] = patients, varies from person to person

In the case of `O=C1CC[C@@]2(O)[C@H]3Cc4ccc(O)c5c4[C@@]2(CCN3CC2CC2)[C@H]1O5` [naltrexone HCl, naltrexone hydrochloride], the naltrexone efficacy rating ([1]; Patient 1, diabetic, 207.5 lbs, 12.5 mg twice daily tailored to 1 mg three times daily) is reported as ≥ 8, the naltrexone efficacy rating ([1]; Patient 2, diabetic, 256 lbs, 12.5 mg/d tailored to 12.5 mg four times per day) is reported as 7 to 8 and the naltrexone efficacy rating ([1]; Patient 3, diabetic, 252 lbs, 12.5 mg when eating out tailored to 2 mg twice daily) is reported as ≥ 8. The naltrexone efficacy rating ([1]; Patient 4, non-diabetic patient, 183 lbs, 8 mg twice daily adjusted to 25 mg three times daily) was 4, the naltrexone efficacy rating ([1]; Patient 5, diabetic, 162 lbs, 8 mg after lunch, unchanged) was 10 and the naltrexone efficacy rating ([1]; Patient 6, diabetic, 204 lbs, 6 mg twice daily tailored to 1 mg twice a day) was 10. For the same compound, the naltrexone efficacy rating ([1]; Patient 7, polycystic ovarian syndrome, 170 lbs, 6 mg three times daily tailored to 36 mg/d) was 8 to 9, the naltrexone efficacy rating ([1]; Patient 8, diabetic, 182 lbs, 8 mg after lunch tailored to 8 mg four times daily) was 9.5 and the naltrexone efficacy rating ([1]; Patient 9, diabetic, 106 lbs, 25 mg/d tailored to 50 mg/d, low doses not tried) was < 8. For the same compound, the naltrexone efficacy rating ([1]; Patient 10, diabetic, 161 lbs, 12.5 mg three times daily adjusted to 50 mg three times daily, doses less than 12.5 mg not tried) was “zero”, the naltrexone efficacy rating ([1]; Patient 11, diabetic, 183 lbs, 8 mg/d tailored to 32 mg/d) was ≥ 8 and the naltrexone efficacy rating ([1]; Patient 12, diabetic, 114 lbs, 4 mg after lunch tailored to 4.5 mg) was “zero”. The naltrexone efficacy rating ([1]; Patient 13, diabetic, 208 lbs, 5 mg three times per day tailored to 8 mg twice per day) was 8.5, the carbohydrate craving rating ([1]; Patient 14, diabetic, 226.5 lbs, 0.1 mg nine times per day adjusted to 50 mg three times daily) was “zero” and the naltrexone efficacy rating ([1]; Patient 15, diabetic, 184.25 lbs, 0.75 mg twice daily tailored to 0.25 mg twice daily) was 10. The risk ([2]; DeZwaan et al. review) was “potential for liver damage”, the “effect on sweet cravings” value ([2]; humans, Yeomans II, 50 mg, compared to other food categories) was “sweet cravings were not reduced” and the “effect on binge eating” value ([2]; humans, one long-term study, 100 mg doses) was “binge eating was affected long-term”. The “effect on food intake” value ([2]; humans, single-dose studies, short-term doses of 50 mg or greater) was “affect food intake”, the “time covered by one small dose” value ([3]; certain patients) was “more than 24 hours” and the “time at which efficacy is apparent” value ([3]; patients, low dose of naltrexone) was “apparent by the second day of treatment”. For the same compound, the “time naltrexone continues to work” value [3, 5] was “about six”, the “time until naltrexone starts working after it is taken” value [3, 5] was 3 to 4 h and the anorexic effect (squirrel monkeys; doses of 0.22 mg/kg) was “slight anorexic effect”. For the same compound, the anorexic effect (squirrel monkeys; higher doses than 0.22 mg/kg) was “the anorexic effect was greater”, the “effect on body weight” value (animals) was “reduces body weight in animals without evidence of drug tolerance” and the effect on cravings ([4]; 3 mg dose) was “cravings were curbed”. For the same compound, the effect on appetite ([4]; dose of 2 mg) was “appetite was unaffected”, the side effects (patients; Patient 1, even at the final dosage (1 mg three times daily), discontinued treatment) was “headaches” and the side effects (patients; Patient 4, 8 mg twice daily adjusted to 25 mg three times daily, discontinued treatment) was “headaches”. The side effects (patients; Patient 12, even at the final dosage (4.5 mg), discontinued treatment) was “headaches”, the side effects (patients; Patient 15, final dose 0.25 mg twice daily) was “not at the final dose” and the side effects (patients; Patient 15, initial dose 0.75 mg twice daily) was “decreased libido, confusion, diminished animation and excessive loss of appetite”. The side effects (patients; obese person, 3 mg dose) was “no headache”, the side effects (patients; obese person, dose of 2 mg) was “no headache” and the side effects (patients; obese person, one 4 mg capsule) was “headache”. The side effects (patients; one patient who snacked between dinner and bedtime and had insomnia) was “made them tired”.
